# Measurements from patent US20110230553A1, “CRYSTALLIZED FORM OF DRONEDARONE BASE” (SANOFI-AVENTIS, priority 2010, published 2011).
# Entries after “also recorded” stand apart in the source; their conditions may differ.
# Experiments:
# Type in all cases: physicochemical
# [1] = Stability study in climatic chamber: thermal behavior by DSC and TGA
# Procedure: (§1) The stabilities of two crystalline forms of dronedarone base, namely form B according to the instant invention and form A described above, are studied in a climatic chamber (reference : Firlabo SP_BVEHF) at 50° C., with or without 80% relative humidity (RH). The duration time of the stability study is set up at 1 month. Samples are monitored in terms of appearance by microscope observation, chemical degradation by HPLC, crystalline form and phase change by XRPD (X-Ray Powder Diffraction, reference : Bruker D5000) and thermal behavior by DSC and TGA (references : TA Instrument Q100/Q1000 for DSC analyses and 050/Q500 for TGA analyses). HPLC is performed with a Waters 2487 apparatus, using as mobile phase a gradient of acetonitrile and pH 4.0 phosphate buffer (30/70 to 70/30, V/V, gradient).
# [2] = Stability study in climatic chamber: crystalline form and phase change by XRPD
# Procedure: as §1
# [3] = Stability study in climatic chamber: appearance; settings: after 15 and 30 days at 50° C./80% RH
# Procedure: as §1
# [4] = Thermodynamic stability of the crystalline phases (DSC, X-ray at various temperatures); settings: at and around room temperature / upon heating
# Procedure: X-ray diffractograms registered at various temperatures from room temperature to 100° C., at intervals of 10° C., have confirmed the solid-solid transition from form A to form C. A first crystalline solid phase, designated as form A, exists from room temperature to […] Two crystalline forms are thus observed : form A from room temperature to about 50° C., and form C appearing above 50° C. and melting between 60 and 70° C.
# All DSC measurements are performed with a Mettler DSC822e (module DSC822e/700/109/414935/0025). If not indicated differently, 40 μL Al-crucibles with sealed lid and hole are used. All measurements are carried out in a nitrogen gas flow of 50 mL/min and chosen heating rate was 10° C./min., with a heating from 25° C. to at least 150° C.
# In comparison, the crystallized form C of dronedarone base presents a melting point at about 69° C. On heating with a rate of 10° C./min, form A transforms to form C at about 54° C.; on further heating, form C melts at about 65° C. (onset temperature of the second endothermic event). After formation of form C, if the heating is stopped below form C melting point and the medium is then cooled back to room temperature, form C typically transforms back to form A between 50 and 45° C.
# [5] = Dynamic Vapor Sorption (DVS) moisture sorption/desorption isotherms; settings: 25° C., relative humidity 0 to 95% and back, two cycles
# Procedure: Moisture sorption/desorption isotherms are recorded on a DVS-1 from Surface Measurement Systems. Two cycles are run at 25° C., in which the relative humidity is stepped from 0 to 95% and back to 0%. The complete measurement time for both cycles is about 35 h. The data is evaluated using the software DVSWin V. 2.15.
# The DVS isotherms of the crystallized form B of dronedarone base are represented on FIG. 5, wherein the change in dry mass (expressed in percentages) is plotted against the target relative humidity (RH, expressed in percentages). On FIG. 5, <<Sorp>> and <<Desorp>> respectively designate the humidity sorption and desorption of each cycle.
# [6] = Stability study in climatic chamber: chemical degradation by HPLC; settings: 50° C. with or without 80% RH, up to 30 days
# Procedure: as §1
# The results in terms of chemical degradation are presented in table 8, which summarizes the content in degradation product measured in the samples. The results in table 8 represent percentages in impurities (impurities appearing after the storage for 15 to 30 days, i.e. total impurities after storage minus impurities already present at t=0).
# The percentages correspond to the area under the peaks detected in chromatography.
change in the DSC spectrum after storage ([1]; stored at 50° C./80% RH),crystalline form change by XRPD ([2]; after 15 days at 50° C./80% RH),thermodynamic stability of the solid form [4],change in the DSC spectrum after storage ([1]; whatever the storage conditions),"crystalline form change by XRPD ([2]; all tested conditions, up to 30 days)",stability in terms of crystalline phase ([2]; storage at 50° C. with or without 80% RH),hygroscopicity [5],chemical stability compared under the same storage conditions [6],SMILES,appearance after storage (visual) [3]
additional endothermic peak,appearance of some peaks of form B,transforms to form C upon heating,–,–,–,–,–,"CCCCc1oc2ccc(NS(C)(=O)=O)cc2c1C(=O)c1ccc(OCCCN(CCCC)CCCC)cc1 [Form A, 2-n-butyl-3-[4-(3-di-n-butylaminopropoxy)benzoyl]-5-methylsulfonamido-benzofuran]",yellow coloration; also recorded: agglomeration of the powder
–,–,thermodynamically most stable one,No change,no change is detected,more stable than form A,low,more stable than form A,"CCCCc1oc2ccc(NS(C)(=O)=O)cc2c1C(=O)c1ccc(OCCCN(CCCC)CCCC)cc1 [Form B, 2-n-butyl-3-[4-(3-di-n-butylaminopropoxy)benzoyl]-5-methylsulfonamido-benzofuran]",no change is detected
–,–,unstable at room temperature,–,–,–,–,–,"CCCCc1oc2ccc(NS(C)(=O)=O)cc2c1C(=O)c1ccc(OCCCN(CCCC)CCCC)cc1 [Form C, 2-n-butyl-3-[4-(3-di-n-butylaminopropoxy)benzoyl]-5-methylsulfonamido-benzofuran]",–
